Experimental data: patent US20150307520A1, “NOVEL HETEROARYL AND HETEROCYCLE COMPOUNDS, COMPOSITIONS AND METHODS THEREOF” (HUTCHISON MEDIPHARMA LIMITED, priority 2012, published 2015)
pIC50: −log10 of the molar value.

Tests used:
[1] = biological target: p110δ/p85α (Homo sapiens, UniProt O00329); test: Transcreener KINASE Assay, kinase inhibition of p110δ/p85α; assay type: biochemical; settings: for PI3Kδ IH % @ 1 uM: 1 uM test compound; for pIC50: read-out: PI3Kδ IC50
Procedure, shortened: (§1)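 ADP production was read by fluorescence polarization immunoassay (60 min detection step) after an 80 min room-temperature reaction of p110/p85α enzyme, compound in 2% DMSO, and PIP2/ATP solution (30 uM/10 uM as added) in HEPES buffer with MgCl2 and DTT. IC50s came from inhibition versus the DMSO control.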

[2] = biological target: p110β/p85α (Homo sapiens, UniProt P42338); test: Transcreener KINASE Assay, kinase inhibition of p110β/p85α; assay type: biochemical; settings: for PI3Kβ IH % @ 1 uM: 1 uM test compound; for pIC50: read-out: PI3Kβ IC50
Procedure, shortened: as §1

[3] = biological target: p110γ (Homo sapiens, UniProt P48736); test: Transcreener KINASE Assay, kinase inhibition of p110γ; assay type: biochemical; settings: for PI3Kγ IH % @ 1 uM: 1 uM test compound; for pIC50: read-out: PI3Kγ IC50
Procedure, shortened: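 FP read-out: far-red competitive immunoassay sensing ADP produced by recombinant p110/p85 or p110γ enzyme. Reaction 80 min RT, then detection mix 60 min RT. IC50 from curve fit.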

[4] = biological target: p110α/p85α (Homo sapiens, UniProt P42336); test: Transcreener KINASE Assay, kinase inhibition of p110α/p85α; assay type: biochemical; settings: for PI3Kα IH % @ 1 uM: 1 uM test compound
Experimental: PI3K kinases including p110α/p85α, p110δ/p85α and p110γ are purchased from Invitrogen, and p110β/p85α is from Millipore.
Primary screening data and IC50 values are measured using Transcreener™ KINASE Assay (Bellbrook, Catalog #3003-10K). […] It is a universal, homogenous, high throughput screening (HTS) technology using a far-red, competitive fluorescence polarization immunoassay based on the detection of ADP to monitor the activity of enzymes that catalyze group transfer reactions. Briefly, the Transcreener KINASE Assay is designed as a simple two-part, endpoint assay.
In the first step, the 25 ul kinase reaction is performed by preparing a reaction mixture containing 5 ul test compound (2% DMSO final concentration), 10 ul kinase, buffer (50 mM HEPES, 100 mM NaCl, 1 mM EGTA, 0.03% CHAPS, 3 mM MgCl2, and freshly supplemented 1 mM DTT), and 10 ul 30 uM PIP2/10 uM ATP. The plate is sealed and incubated for 80 min at room temperature. Next, 25 ul ADP detection mix is added per well. The plate is sealed again and incubated for 60 min at room temperature, and then measure fluorescence polarization by Tecan Infinite F500 Reader.
Data is analyzed and IC50s are generated using the add-in software for Microsoft Excel, Xlfit™ (version 2.0). IH %=(ADP amount under 2% DMSO-ADP amount under test compound)/ADP amount under 2% DMSO.

[5] = biological target: PI3Kγ (Mus musculus, UniProt Q9JHG7); test: Acumen Assay - Raw264.7 p-AKT Assay (C5a stimulated); assay type: cell-based; settings: Raw264.7 macrophage cells, compound 30 min, stimulated with 10 nM C5a for 5 min, p-AKT (Ser473) readout; read-out: PI3Kγ cell-C5a Raw264.7 IC50
Experimental: Acumen Assay—Raw264.7 p-AKT Assay
Acumen® eX3 (A Multilaser Microplate Cytometer For Enhanced High Content Screening): TTP LabTech
3×10^4 Raw264.7 macrophage cells were seeded into 96-well plates with DMEM+10% heat-inactivated FBS at […], 90 ul/well, overnight. After starvation for 3 hr at 37° C. under 5% CO2, Raw264.7 cells were treated with 10 ul/well various concentrations of compound or 0.5% DMSO for 30 min, and then stimulated with 10 ul/well 10 nM C5a for 5 min.
1.) Cells were fixed 110 μL of 4% pre-warmed Paraformaldehyde (2% final), incubate for 45 min at room temperature. 2.) Remove paraformaldehyde solution. Add 100 μL of ice-cold 0.1% Triton X-100 in PBS and leave at 4° C. for 30 min. 3.) Wash once in 100 μL PBS. 4.) Incubate with 100 μL blocking buffer (1% BSA, in PBS) for 2 hours at room temperature. 5.) Wash once for 5 min with 100 ul PBS. 6.) Incubate with 40 μL 1:200 dilution of phospho AKT (Ser473) rabbit antibody in antibody dilution buffer (0.1% BSA, in PBS) overnight at 4° C. 7.) Wash for 3 times for 10 min with 100 ul PBS. 8.) Incubate for 90 min at room temperature with 50 μL of goat anti-rabbit Alex488 antibody at a 1:1,000 dilution in antibody dilution buffer (0.1% BSA, in PBS). Cover plate in foil to keep out of light. 9.) Wash for 3 times for 10 min with 100 μL PBS. 10.) Add 50 μL of 1.5 μM Propidium Iodide solution to each well to determine cell number at a 1:1,000 dilution in PBS (stock: 1.5 mM). 11.) Incubate at room temperature for 30 min. 12.) Seal the plate with a black cover-seal (supplied with plate). 13.) Load the plate into the Acumen Explorer and scan with the appropriate instrument settings.

p110α/p85α, sequence (P42336 whole entry): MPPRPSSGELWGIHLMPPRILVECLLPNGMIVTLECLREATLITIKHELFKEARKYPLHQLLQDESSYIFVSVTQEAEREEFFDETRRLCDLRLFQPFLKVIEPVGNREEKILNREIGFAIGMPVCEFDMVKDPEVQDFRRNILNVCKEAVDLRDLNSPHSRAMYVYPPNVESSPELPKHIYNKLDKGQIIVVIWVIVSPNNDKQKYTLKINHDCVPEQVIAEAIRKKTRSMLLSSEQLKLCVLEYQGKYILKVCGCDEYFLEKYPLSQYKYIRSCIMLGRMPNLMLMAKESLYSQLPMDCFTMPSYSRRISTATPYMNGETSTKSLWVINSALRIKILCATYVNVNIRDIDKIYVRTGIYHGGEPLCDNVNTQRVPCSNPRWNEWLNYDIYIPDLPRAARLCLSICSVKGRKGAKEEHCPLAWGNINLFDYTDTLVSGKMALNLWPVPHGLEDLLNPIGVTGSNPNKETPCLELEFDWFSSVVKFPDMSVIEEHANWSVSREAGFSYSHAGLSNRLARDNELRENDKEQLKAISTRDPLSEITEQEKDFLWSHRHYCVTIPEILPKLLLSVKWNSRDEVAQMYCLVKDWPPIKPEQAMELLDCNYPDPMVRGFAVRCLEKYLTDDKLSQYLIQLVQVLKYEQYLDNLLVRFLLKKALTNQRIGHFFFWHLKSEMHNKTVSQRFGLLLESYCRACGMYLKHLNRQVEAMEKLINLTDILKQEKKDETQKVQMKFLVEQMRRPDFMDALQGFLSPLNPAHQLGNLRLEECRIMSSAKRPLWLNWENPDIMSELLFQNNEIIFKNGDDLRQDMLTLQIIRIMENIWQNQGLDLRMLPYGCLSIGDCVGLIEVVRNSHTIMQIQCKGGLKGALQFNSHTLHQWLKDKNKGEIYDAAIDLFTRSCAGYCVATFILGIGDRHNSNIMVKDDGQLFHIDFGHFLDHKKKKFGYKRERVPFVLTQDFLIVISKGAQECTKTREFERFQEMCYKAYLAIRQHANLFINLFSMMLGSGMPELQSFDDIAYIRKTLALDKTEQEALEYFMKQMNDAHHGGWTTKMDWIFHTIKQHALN
p110α/p85α, sequence (P27986 whole entry partner): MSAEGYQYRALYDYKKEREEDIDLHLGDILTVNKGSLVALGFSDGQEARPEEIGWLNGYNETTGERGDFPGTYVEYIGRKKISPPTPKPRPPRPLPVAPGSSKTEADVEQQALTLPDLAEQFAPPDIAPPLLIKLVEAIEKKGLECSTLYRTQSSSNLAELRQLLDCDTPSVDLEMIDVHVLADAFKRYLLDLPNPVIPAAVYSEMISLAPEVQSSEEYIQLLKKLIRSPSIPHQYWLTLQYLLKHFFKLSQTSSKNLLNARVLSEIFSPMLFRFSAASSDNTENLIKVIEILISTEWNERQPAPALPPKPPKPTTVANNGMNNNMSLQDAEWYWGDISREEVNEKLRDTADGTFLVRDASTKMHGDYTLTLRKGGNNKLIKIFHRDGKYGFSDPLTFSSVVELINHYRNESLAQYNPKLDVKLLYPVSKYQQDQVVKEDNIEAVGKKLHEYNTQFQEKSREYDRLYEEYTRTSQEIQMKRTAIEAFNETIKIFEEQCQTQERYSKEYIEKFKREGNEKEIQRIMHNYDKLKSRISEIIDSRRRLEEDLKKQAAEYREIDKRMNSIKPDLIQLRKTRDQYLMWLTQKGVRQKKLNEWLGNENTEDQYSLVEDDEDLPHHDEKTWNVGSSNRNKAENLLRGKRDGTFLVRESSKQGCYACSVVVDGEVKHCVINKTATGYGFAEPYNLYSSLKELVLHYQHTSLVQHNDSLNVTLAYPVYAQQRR
p110γ, sequence (P48736 whole entry): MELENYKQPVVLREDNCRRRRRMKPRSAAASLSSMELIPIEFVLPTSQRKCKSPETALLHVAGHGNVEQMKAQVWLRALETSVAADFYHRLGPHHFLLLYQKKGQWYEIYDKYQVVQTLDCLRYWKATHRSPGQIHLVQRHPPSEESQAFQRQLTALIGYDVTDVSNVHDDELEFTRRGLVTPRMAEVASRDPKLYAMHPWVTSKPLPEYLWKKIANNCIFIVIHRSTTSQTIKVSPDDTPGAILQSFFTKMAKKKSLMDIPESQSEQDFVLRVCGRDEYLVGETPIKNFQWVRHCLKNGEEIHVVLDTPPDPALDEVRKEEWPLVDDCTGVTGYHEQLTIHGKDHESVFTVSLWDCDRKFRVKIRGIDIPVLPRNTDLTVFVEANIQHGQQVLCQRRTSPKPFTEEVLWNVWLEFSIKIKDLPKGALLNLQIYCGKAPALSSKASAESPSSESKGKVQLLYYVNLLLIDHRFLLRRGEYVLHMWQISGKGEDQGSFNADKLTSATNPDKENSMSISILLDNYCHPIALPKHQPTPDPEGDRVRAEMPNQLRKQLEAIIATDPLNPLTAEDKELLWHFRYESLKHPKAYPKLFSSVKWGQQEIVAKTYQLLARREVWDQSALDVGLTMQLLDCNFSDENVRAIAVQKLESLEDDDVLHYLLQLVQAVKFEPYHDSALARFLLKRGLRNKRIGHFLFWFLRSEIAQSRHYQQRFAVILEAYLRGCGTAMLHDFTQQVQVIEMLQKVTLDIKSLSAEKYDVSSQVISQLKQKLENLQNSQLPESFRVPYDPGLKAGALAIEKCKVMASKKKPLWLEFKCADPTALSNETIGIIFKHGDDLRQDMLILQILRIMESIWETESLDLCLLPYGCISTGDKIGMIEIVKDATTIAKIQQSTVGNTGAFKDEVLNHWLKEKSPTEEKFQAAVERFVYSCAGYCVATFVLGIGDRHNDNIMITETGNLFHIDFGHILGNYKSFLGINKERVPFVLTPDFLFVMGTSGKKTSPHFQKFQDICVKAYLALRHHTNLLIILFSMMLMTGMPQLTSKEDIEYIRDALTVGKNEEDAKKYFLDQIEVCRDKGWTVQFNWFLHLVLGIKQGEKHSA
p110δ/p85α, sequence (O00329 whole entry): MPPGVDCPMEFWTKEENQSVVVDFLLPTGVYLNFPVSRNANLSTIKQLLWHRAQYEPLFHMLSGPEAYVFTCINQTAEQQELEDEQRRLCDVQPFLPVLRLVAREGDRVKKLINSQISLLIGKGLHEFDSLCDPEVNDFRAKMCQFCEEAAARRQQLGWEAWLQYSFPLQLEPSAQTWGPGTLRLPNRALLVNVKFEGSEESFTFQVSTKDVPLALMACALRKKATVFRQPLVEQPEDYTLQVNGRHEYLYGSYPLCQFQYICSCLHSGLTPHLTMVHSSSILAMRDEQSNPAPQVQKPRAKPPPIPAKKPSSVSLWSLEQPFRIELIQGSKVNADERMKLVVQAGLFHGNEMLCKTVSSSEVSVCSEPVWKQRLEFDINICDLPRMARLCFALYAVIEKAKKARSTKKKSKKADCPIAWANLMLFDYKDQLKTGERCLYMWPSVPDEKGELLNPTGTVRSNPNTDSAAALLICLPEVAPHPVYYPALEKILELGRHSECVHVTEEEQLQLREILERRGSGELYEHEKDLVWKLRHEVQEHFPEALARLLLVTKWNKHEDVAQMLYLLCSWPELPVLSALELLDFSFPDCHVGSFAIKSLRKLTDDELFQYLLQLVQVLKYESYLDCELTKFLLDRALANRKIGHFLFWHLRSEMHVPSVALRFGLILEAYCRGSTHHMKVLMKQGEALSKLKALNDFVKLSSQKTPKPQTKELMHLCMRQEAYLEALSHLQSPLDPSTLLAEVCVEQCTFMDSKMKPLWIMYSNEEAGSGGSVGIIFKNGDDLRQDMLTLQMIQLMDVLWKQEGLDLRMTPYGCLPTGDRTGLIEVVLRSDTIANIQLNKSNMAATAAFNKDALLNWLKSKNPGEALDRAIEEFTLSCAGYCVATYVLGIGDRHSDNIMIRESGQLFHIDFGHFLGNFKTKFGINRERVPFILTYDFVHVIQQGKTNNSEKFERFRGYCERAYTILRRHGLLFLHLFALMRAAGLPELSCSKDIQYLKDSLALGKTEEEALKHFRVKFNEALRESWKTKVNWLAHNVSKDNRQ
p110δ/p85α, sequence (P27986 whole entry partner): as the sequence (P27986 whole entry partner) above
PI3Kγ, sequence (Q9JHG7 whole entry): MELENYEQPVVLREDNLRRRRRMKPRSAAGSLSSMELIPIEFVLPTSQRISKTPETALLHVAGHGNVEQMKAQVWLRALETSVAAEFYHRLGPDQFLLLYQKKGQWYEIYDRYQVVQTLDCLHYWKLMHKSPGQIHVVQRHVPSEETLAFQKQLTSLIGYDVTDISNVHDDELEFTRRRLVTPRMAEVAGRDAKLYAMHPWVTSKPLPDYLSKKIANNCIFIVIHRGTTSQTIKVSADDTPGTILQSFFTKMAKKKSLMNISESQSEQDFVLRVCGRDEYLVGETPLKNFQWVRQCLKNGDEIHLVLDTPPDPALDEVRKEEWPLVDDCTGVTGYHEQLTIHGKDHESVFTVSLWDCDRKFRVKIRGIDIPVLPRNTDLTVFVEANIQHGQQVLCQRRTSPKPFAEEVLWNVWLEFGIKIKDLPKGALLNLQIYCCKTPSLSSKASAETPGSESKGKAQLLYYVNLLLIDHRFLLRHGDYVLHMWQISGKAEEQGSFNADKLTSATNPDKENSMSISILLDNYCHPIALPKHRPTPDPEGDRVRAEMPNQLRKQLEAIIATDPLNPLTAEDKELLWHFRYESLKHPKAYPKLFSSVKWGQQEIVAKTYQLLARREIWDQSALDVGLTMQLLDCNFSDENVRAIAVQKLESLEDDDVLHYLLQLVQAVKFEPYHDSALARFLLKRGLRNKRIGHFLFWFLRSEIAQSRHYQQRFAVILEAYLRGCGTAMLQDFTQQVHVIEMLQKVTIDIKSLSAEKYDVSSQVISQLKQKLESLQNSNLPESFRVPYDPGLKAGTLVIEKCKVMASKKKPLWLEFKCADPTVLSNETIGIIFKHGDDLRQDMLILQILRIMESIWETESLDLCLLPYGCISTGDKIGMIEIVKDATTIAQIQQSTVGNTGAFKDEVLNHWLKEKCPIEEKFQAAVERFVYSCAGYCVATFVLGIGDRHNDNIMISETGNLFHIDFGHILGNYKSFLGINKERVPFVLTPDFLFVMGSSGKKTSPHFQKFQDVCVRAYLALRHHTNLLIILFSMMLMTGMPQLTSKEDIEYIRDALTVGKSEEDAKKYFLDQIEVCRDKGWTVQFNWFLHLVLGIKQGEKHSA

PI3Kδ IH % @ 1 uM [1] | pIC50 [1] | PI3Kβ IH % @ 1 uM [2] | PI3Kγ IH % @ 1 uM [3] | PI3Kα IH % @ 1 uM [4] | pIC50 [2] | pIC50 [3] | pIC50 ([4]; read-out: PI3Kα IC50) | pIC50 [5] | Structure (SMILES)
99.0% | 9.00 | 84.4% | >100% | 14.1% | – | – | – | – | C[S+]([O-])c1c[nH]c2ncnc(N3CCC[C@H]3c3nn4ccc(Cl)c4c(=O)n3-c3ccccc3)c12 (some centres unmarked) [Compound 187]
98.8% | – | 68.7% | >100% | 14.7% | – | – | – | – | C[S+]([O-])c1c[nH]c2ncnc(N3CCC[C@H]3c3nn4ccc(Cl)c4c(=O)n3-c3ccccc3)c12 (some centres unmarked) [Compound 188]
97.5% | 9.00 | 87.0% | 89.2% | 54.0% | 7.06 | 7.82 | – | – | Cc1ccn2nc([C@@H]3CCCN3c3ncnc(N)c3C#N)n(-c3ccccc3)c(=O)c12 [Compound 189, (S)-4-amino-6-(2-(5-methyl-4-oxo-3-phenyl-3,4-dihydropyrrolo[2,1-f][1,2,4]triazin-2-yl)pyrrolidin-1-yl)pyrimidine-5-carbonitrile]
>100% | 9.00 | >100% | >100% | 28.4% | 6.55 | 8.00 | – | – | C[S+]([O-])c1c[nH]c2ncnc(N3CCC[C@H]3c3nn4ccc(Cl)c4c(=O)n3-c3ccccc3)c12 (some centres unmarked) [Compound 197]
>100% | 9.00 | 82.4% | >100% | 17.4% | 6.49 | 8.00 | – | – | C[S+]([O-])c1c[nH]c2ncnc(N3CCC[C@H]3c3nn4ccc(Cl)c4c(=O)n3-c3cccc(F)c3)c12 (some centres unmarked) [Compound 198]
94% | 8.15 | >100% | >100% | – | 6.74 | 9.00 | 6.43 | – | CC(=O)c1cnc(N)nc1N1C[C@H](C)[C@H]1c1nn2ccc(Cl)c2c(=O)n1-c1ccc(F)cc1 [Compound 206]
>100% | 9.00 | 85.9% | >100% | 65.2% | 7.06 | 8.15 | – | – | N#Cc1c[nH]c2ncnc(N3C[C@@H](F)C[C@H]3c3nn4ccc(Cl)c4c(=O)n3-c3cccc(F)c3)c12 [Compound 213]
>100% | 8.40 | 69.3% | 96.2% | – | 6.68 | 7.92 | – | 7.15 | C[C@H]1CN(c2ncnc3[nH]cc(C#N)c23)C1c1nn2ccc(Cl)c2c(=O)n1-c1ccccc1 (some centres unmarked) [Compound 235]
>100% | 8.52 | 80.3% | >100% | 38.4% | 6.77 | – | – | – | CC(=O)c1c[nH]c2ncnc(N3C[C@@H](F)C[C@H]3c3nn4ccc(Cl)c4c(=O)n3-c3ccccc3)c12 [Compound 268]
>100% | 8.40 | 79.3% | >100% | – | 6.65 | 7.89 | – | 7.70 | CC(=O)c1cnc(N)nc1N1C[C@H](C)[C@H]1c1nn2ccc(Cl)c2c(=O)n1-c1ccccc1 [Compound 301]
99.7% | – | 56.4% | 96.7% | 9.7% | – | – | – | – | CO/N=C(\C)c1c[nH]c2ncnc(N3CCC[C@H]3c3nn4ccc(Cl)c4c(=O)n3-c3ccccc3)c12 [Compound 308]
>100% | – | 79.4% | >100% | 10.1% | 6.42 | 7.47 | – | – | O=c1c2c(Cl)ccn2nc([C@@H]2CCCN2c2ncnc3[nH]cnc23)n1-c1ccccn1 [Compound 311]
99.0% | 9.00 | 84.4% | >100% | 14.1% | 7.06 | 7.48 | – | – | C[S@+]([O-])c1c[nH]c2ncnc(N3CCC[C@H]3c3nn4ccc(Cl)c4c(=O)n3-c3ccccc3)c12 [Compound 382, 5-chloro-2-((S)-1-(5-((S)-methylsulfinyl)-7H-pyrrolo[2,3-d]pyrimidin-4-yl)pyrrolidin-2-yl)-3-phenylpyrrolo[2,1-f][1,2,4]triazin-4(3H)-one]
98.8% | 8.40 | 68.7% | >100% | 14.7% | 6.13 | 7.77 | – | – | C[S@@+]([O-])c1c[nH]c2ncnc(N3CCC[C@H]3c3nn4ccc(Cl)c4c(=O)n3-c3ccccc3)c12 [Compound 383, 5-chloro-2-((S)-1-(5-((R)-methylsulfinyl)-7H-pyrrolo[2,3-d]pyrimidin-4-yl)pyrrolidin-2-yl)-3-phenylpyrrolo[2,1-f][1,2,4]triazin-4(3H)-one]
96.2% | 8.15 | 51.3% | 95.9% | – | – | 8.10 | – | 7.07 | C[C@H]1CN(c2nc(N)ncc2C#N)C1c1nn2ccc(Cl)c2c(=O)n1-c1ccccc1 (some centres unmarked) [Compound 431]
>100% | 9.00 | 78.5% | 98.7% | – | 7.62 | 8.70 | – | 7.43 | Cc1nc(N)nc(N2C[C@H](C)C2c2nn3ccc(F)c3c(=O)n2-c2ccccc2)c1C#N (some centres unmarked) [Compound 436]
>100% | 9.40 | 80.5% | >100% | – | 7.27 | 8.15 | – | 7.74 | Cc1nc(N)nc(N2C[C@H](C)[C@H]2c2nn3ccc(Cl)c3c(=O)n2-c2cccc(F)c2)c1C#N [Compound 461]
>100% | 9.00 | 80.5% | >100% | – | 6.73 | 8.30 | – | 7.05 | Cc1nc(N)nc(N2C[C@H](C)[C@H]2c2nn3ccc(F)c3c(=O)n2-c2cccc(F)c2)c1C#N [Compound 462]
89.7% | 9.00 | 77.1% | 94.3% | – | 6.43 | 8.30 | – | 7.41 | CC(=O)c1cnc(N)nc1N1C[C@H](C)[C@H]1c1nn2ccc(Cl)c2c(=O)n1-c1cccc(F)c1 [Compound 467]
>100% | 8.52 | 47.1% | 92.4% | – | – | 8.15 | – | 7.02 | CC1(C)CN(c2nc(N)ncc2C#N)C1c1nn2ccc(Cl)c2c(=O)n1-c1ccccc1 (centres unmarked) [Compound 471]
